Source: BindingDB's records for doi:10.1016/0960-894X(95)00530-0 (1995)
pIC50: −log10 of the molar value.

Molecular target: Gastrin/cholecystokinin type B receptor (Cavia porcellus)
Assay: Displacement of [125I]-BH CCK-8S from Cholecystokinin type B receptor in guinea pig cortex

| SMILES | pIC50 |
| --- | --- |
| Cc1cccc(NC(=O)N[C@@H]2N=C(c3ccccc3)c3ccccc3N3C[C@H](C)N=C23)c1 [1-((2S,4R)-2-Methyl-6-phenyl-2,4-dihydro-1H-3,5,10b-triaza-benzo[e]azulen-4-yl)-3-m-tolyl-urea] | 8.74 |
| CCCN1C(=O)C(NC(=O)Nc2cccc(C(F)(F)F)c2)N=C(N2CCN(C)CC2)c2ccccc21 (centres undefined) [1-[5-(4-Methyl-piperazin-1-yl)-2-oxo-1-propyl-2,3-dihydro-1H-benzo[e][1,4]diazepin-3-yl]-3-(3-trifluoromethyl-phenyl)-urea] | 7.92 |
| Cc1cccc(NC(=O)NC2N=C(N3CCN(C(=O)OC(C)(C)C)CC3)c3ccccc3N(C)C2=O)c1 (centres undefined) [4-[1-Methyl-2-oxo-3-(3-m-tolyl-ureido)-2,3-dihydro-1H-benzo[e][1,4]diazepin-5-yl]-piperazine-1-carboxylic acid tert-butyl ester] | < 5.52 |
| Cc1cccc(NC(=O)NC2N=C(N3CCNCC3)c3ccccc3N(C)C2=O)c1 (centres undefined) [1-(1-Methyl-2-oxo-5-piperazin-1-yl-2,3-dihydro-1H-benzo[e][1,4]diazepin-3-yl)-3-m-tolyl-urea] | 6.06 |
